These are literature values, as cited in patent US20160378912A1, “STRUCTURE-BASED MODELING AND TARGET-SELECTIVITY PREDICTION” (EPIGENETX, LLC, priority 2013, published 2016).

The term pIC50 denotes the IC50 on a negative log10 scale, so that one unit is a factor of ten. What is called IC50 is the concentration that gives 50% inhibition.

The target in data set [1] is T1, HDAC7 (Homo sapiens, UniProt Q8WUI4).
T1 sequence (Q8WUI4 1-952): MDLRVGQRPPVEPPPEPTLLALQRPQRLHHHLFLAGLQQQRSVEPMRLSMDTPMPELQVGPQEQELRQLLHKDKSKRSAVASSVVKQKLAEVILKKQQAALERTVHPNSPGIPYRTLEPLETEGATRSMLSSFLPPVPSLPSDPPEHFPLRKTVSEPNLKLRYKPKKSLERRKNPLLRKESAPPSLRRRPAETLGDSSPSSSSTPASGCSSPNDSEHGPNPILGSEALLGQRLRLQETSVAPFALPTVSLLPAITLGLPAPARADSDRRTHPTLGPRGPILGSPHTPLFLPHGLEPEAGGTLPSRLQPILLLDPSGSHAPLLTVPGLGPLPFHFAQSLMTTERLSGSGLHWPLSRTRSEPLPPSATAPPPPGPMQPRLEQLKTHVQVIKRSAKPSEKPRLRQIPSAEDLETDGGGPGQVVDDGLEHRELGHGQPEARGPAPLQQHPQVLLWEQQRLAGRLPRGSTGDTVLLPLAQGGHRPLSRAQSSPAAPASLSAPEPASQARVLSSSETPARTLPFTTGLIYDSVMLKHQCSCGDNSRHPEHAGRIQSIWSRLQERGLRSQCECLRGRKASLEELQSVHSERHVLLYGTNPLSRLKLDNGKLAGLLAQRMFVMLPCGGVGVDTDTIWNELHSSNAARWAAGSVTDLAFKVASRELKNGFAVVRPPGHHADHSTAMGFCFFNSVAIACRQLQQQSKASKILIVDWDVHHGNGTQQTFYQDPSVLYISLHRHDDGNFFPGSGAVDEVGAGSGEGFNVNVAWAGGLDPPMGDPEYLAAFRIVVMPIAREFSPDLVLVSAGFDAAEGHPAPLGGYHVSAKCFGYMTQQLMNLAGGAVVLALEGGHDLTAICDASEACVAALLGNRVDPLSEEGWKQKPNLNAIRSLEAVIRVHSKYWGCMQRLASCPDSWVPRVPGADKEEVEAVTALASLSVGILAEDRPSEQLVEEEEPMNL
The note with it: cited from earlier work.

The target of data set [2] is HDAC1 (Homo sapiens, UniProt Q13547). As to conditions: cited from earlier work.
Setting [3] is: training set, read-out: HDACs inhibitory activities IC50.

HDAC1, sequence (Q13547 whole entry): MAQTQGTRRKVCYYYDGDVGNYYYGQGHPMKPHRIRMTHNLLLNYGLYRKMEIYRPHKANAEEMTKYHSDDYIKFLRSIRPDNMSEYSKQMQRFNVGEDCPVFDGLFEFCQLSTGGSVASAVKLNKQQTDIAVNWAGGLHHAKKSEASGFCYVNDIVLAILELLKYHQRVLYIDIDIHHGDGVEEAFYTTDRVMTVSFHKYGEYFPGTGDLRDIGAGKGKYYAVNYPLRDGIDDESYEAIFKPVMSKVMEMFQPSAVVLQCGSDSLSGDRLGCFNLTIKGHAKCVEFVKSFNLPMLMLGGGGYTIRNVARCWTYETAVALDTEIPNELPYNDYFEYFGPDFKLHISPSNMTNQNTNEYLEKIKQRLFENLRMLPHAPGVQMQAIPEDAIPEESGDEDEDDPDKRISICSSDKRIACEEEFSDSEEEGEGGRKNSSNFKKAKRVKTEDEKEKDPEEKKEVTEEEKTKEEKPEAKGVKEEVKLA

On to `CCCC(=O)O` [NABUT, Butyrate], for which the pIC50 in data set [1] (training set composition) is recorded as 4.52; in data set [2] (training set composition) it was 3.50. Further, the IC50 was 30 µM in data set [1] (setting [3]) and 319 µM in data set [2] (setting [3]). In addition, the pIC50exp in data set [2] (experimental value of modeled complex) was 3.496.
